Converted amounts (≈) assume the structure as drawn. “And” between values parts separate entries of the source, which are not always exact repeats. Equal entries are not always repeated. Where two headings read alike, the source gives them in different places.
Tests used:
[1] = test system: Trypanosoma brucei brucei Squib 427; assay: Trypanosoma brucei growth (resazurin); format: cell-based; details: reference compound
Protocol: page 46: of PES (phenazine ethosulfate, 0.1 mg/ml) and NBT (Nitro Blue Tetrazolium Grade III, 2 mg/ml) in a new plate. The absorbance change was measured at 655nm. The results were shown as % reduction in parasitemia, compared to control wells with no treatment. […] A compound […] secondary screening. 3. Trypanosoma brucei sample has 7*104 parasites/ml in the suspension. Cultured for 3 days, the growth of the cells was assessed fluorimetrically with the addition of resazurin in a microtiter plate. The fluorescence intensity was measured after 24h at 37 °C with the excitation wavelength at 550nm and the emission wavelength at 590nm. The results were presented as % reduction in parasite growth, compared to reference wells with no treatment, followed by IC50 calculation. Suramine was used as the reference compound […] subsequently evaluated in a secondary assay, with broader concentration range, additional references, and other species. IC50 values are shown in Table S1, followed by semi-quantitative activity scores, and indications for specificity. […]

[2] = test system: Trypanosoma cruzi Tulahuen LacZ (clone C4); assay: Trypanosoma cruzi growth on MRC-5 cells (CPRG); details: MRC5, 168 h, read-out: IC50 Trypanosoma cruzi
Protocol: In vitro biology: Minimum inhibitory concentration (MIC) assays on parasites Synthesized compounds were tested against different parasite cell lines (T. brucei, T. cruzi, and P. falciparum K1) for the MIC determination.
Trypanosoma cruzi cells were maintained on MRC-5 human lung fibroblast cells. The assay was performed with 5% CO2 at 37 °C in a 96-well microtiter plate. Each well contains 10 µl compound dilution and 190 µl parasite/MRC-5 cell inoculum (10:1 parasites : cells). Parasite burdens were evaluated with addition of substrate CPRG (50 µl/well stock solution with 15.2mg CPRG + 250 µl Nonidet in 100 ml PBS). After 4h incubation, the absorbance change was measured spectrophotometrically at 540 nm at 37 °C. The res ults were presented as % growth, compared with non-infected cells (0% growth) and untreated-infected controls (100 % growth) after 7-day incubation, and the

[3] = test system: M. tuberculosis strain H37Rv (ATCC 25618); assay: MIC on M. tuberculosis by resazurin reduction microplate assay (REMA); format: cell-based; details: Mycobacterium tuberculosis
[4] = test system: HepG2 cells; details: human, 72 h
[5] = test system: P. falciparum K1; assay: Plasmodium falciparum K1 growth (Malstat); format: cell-based; details: reference compound, 72 h
Protocol: acceptor at a range of concentrations.
2.1.3. IC50 determination
Compounds were pre-incubated
IC50 is calculated. […] The […]
of PES (phenazine ethosulfate, 0.1 mg/ml) and NBT (Nitro Blue Tetrazolium Grade III, 2 mg/ml) in a new plate. The absorbance change was measured at 655nm. The results were shown as % reduction in parasitemia, compared to control wells with no treatment.
3. Trypanosoma brucei sample has 7*104 parasites/ml in the suspension. Cultured for 3 days, the growth of the cells was assessed fluorimetrically with the addition of resazurin in a microtiter plate. The fluorescence intensity was measured after 24h at 37 °C with the excitation wavelength at 550nm and the emission wavelength at 590nm. The results were presented as % reduction in parasite growth, compared to reference wells with no treatment, followed by IC50 calculation. Suramine was used as the reference compound […]
A compound with IC50 higher than 5 µM is classified as the […]
subsequently evaluated in a secondary assay, with broader concentration range, additional references, and other species.
IC50 values are shown in Table S1, followed by semi-quantitative activity scores, and indications for specificity. […]

[6] = biological target: MsNDH-2 (Mycolicibacterium smegmatis, UniProt A0QYD6); assay: Inhibition of MsNDH-2 (NADH oxidation with menadione, absorbance at 340 nm); format: biochemical, M. smegmatis
Sequence of MsNDH-2 (A0QYD6 1-457): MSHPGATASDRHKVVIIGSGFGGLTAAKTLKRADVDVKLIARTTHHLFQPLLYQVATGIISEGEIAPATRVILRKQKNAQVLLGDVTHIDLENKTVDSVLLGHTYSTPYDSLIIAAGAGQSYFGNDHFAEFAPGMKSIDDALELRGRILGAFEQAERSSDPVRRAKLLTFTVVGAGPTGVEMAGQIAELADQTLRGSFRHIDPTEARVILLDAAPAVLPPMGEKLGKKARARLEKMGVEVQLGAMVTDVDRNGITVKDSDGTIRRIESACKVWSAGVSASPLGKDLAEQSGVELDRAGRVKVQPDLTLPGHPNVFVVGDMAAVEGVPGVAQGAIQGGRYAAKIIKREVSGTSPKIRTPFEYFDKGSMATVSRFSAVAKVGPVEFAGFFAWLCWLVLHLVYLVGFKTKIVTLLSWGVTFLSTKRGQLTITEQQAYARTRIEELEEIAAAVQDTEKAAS

[7] = test system: P. aeruginosa (PAO750 efflux-defective mutant, isogenic to PAO1); assay: microbe, parasite or virus in culture; format: cell-based; details: Pseudomonas aeruginosa, PAO1, read-out: MIC Pa efflux
[8] = biological target: T1, MtNDH-2 (Mycobacterium tuberculosis, UniProt P95160); design: method as in PMID 24900541; details: reported earlier; cited from earlier work
T1 sequence (P95160 2-463, added parts left off): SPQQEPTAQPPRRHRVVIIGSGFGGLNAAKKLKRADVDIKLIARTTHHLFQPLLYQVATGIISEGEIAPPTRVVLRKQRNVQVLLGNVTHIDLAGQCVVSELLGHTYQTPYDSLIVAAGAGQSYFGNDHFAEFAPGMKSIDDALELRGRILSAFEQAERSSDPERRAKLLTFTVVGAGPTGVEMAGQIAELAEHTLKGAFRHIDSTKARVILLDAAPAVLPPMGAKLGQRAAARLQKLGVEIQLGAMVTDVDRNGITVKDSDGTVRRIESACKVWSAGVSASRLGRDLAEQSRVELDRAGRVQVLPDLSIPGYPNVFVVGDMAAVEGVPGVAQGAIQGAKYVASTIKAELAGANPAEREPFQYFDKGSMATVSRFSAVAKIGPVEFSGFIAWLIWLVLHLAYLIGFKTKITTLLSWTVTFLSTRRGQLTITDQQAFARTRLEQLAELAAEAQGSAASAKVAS

[9] = test system: E. coli (ΔtolC efflux-defective mutant, isogenic to ATCC 25922); assay: microbe, parasite or virus in culture; format: cell-based; details: Escherichia coli, ATCC25922, read-out: MIC Ec ΔtolC
[10] = Cytotoxicity on the MRC-5 cell line (resazurin); format: cell-based; details: human, MRC-5SV2 cells, MRC-5SV2, 3 days
Protocol: MRC-5SV2 cells were cultured in Earl’s MEM + 5% FCSi. Assays were performed in 96-well microtiter plates, each well containing about 10^4 cells/well. After 3 days of incubation with or without compounds, cell viability was assessed fluorimetrically after the addition of resazurin (λex 550 nm, λem 590 nm). The results were expressed as % reduction in cell growth/viability compared to untreated control wells and CC50 was determined. Testing/retesting strategy was as described above for HepG2 cells.

[11] = test system: S. aureus (ATCC 29213, wild-type); assay: MIC on ESKAPE pathogens, S. aureus; format: cell-based; details: Staphylococcus aureus, ATCC29213
[12] = test system: E. coli (ATCC 25922, wild-type); assay: MIC on ESKAPE pathogens, E. coli wild-type; format: cell-based; details: Escherichia coli
[13] = test system: A. baumannii (ATCC 19606, wild-type); assay: MIC on ESKAPE pathogens, A. baumannii; format: cell-based; details: Acinetobacter baumannii, ATCC19606; A. baumannii ATCC 19606, wild-type; read-out: MIC Ab WT
[14] = test system: P. aeruginosa (PAO1, wild-type); assay: MIC on ESKAPE pathogens, P. aeruginosa wild-type; format: cell-based; details: Pseudomonas aeruginosa
[15] = test system: K. pneumonia (ATCC 13833, wild-type); assay: MIC on ESKAPE pathogens, K. pneumoniae
[16] = biological target: T1, MtNDH-2; assay: biochemical; design: species or system M. tuberculosis; details: MtNDH-2 IC50
[17] = test system: E. coli (D22, lpxC mutant, drug-hypersensitive); assay: microbe, parasite or virus in culture; format: cell-based; details: Escherichia coli, read-out: MIC Ec D22
[18] = test system: P. aeruginosa PAO1 resistant mutants; assay: microbe, parasite or virus in culture; format: cell-based
[19] = test system: E. coli MG1655 ΔtolC resistant mutants; assay: microbe, parasite or virus in culture; format: cell-based; details: for MIC: Escherichia coli
[20] = H37Rv, reference antitubercular agents, read-out: MIC M. tuberculosis
[21] = 95% confidence interval in parentheses, 50 nM enzyme, 50 μM menadione, >100: no significant inhibition at 100 μM
[22] = same IC50 given in μg/mL to assist comparisons with MICs
[23] = M. tuberculosis H37Rv, read-out: MIC Mtb

Cc1ccc(C(=O)Nc2ccc(S(=O)(=O)O)c3cc(S(=O)(=O)O)cc(S(=O)(=O)O)c23)cc1NC(=O)c1cccc(NC(=O)Nc2cccc(C(=O)Nc3cc(C(=O)Nc4ccc(S(=O)(=O)O)c5cc(S(=O)(=O)O)cc(S(=O)(=O)O)c45)ccc3C)c2)c1 [Suramine]
IC50 [1]: 0.04 µM

O=C(Cn1ccnc1[N+](=O)[O-])NCc1ccccc1 [Benznidazole]
IC50 [2]: 1.7 µM

CO[C@H]1/C=C/O[C@@]2(C)Oc3c(C)c(O)c4c(O)c(c(/C=N/N5CCN(C)CC5)c(O)c4c3C2=O)NC(=O)/C(C)=C\C=C\[C@H](C)[C@H](O)[C@@H](C)[C@@H](O)[C@@H](C)[C@H](OC(C)=O)[C@@H]1C [Rifampicin, reference compound]
MIC [3, 20]: 0.0003 µM
cytotoxicity HepG2 TD50 [4]: 75 µM
cytotoxicity HepG2 TD99 [4]: ≥ 100 µM

CCN(CC)CCCC(C)Nc1ccnc2cc(Cl)ccc12 (centres unmarked) [Chloroquine]
IC50 [5]: 0.21 µM

Cc1cccc(-c2cc(Nc3ccc4nc(-c5ccc(F)cc5)cc(N)c4c3)nc(N)n2)c1 [Compound 1, N^6-(2-Amino-6-m-tolylpyrimidin-4-yl)-2-(4-fluorophenyl)quinoline-4,6-diamine, reference compound]
IC50 [6, 21]: 1.6 µM
IC50 [6, 22]: 1.6 µM
MIC [7]: 128 µg/mL (≈ 293 µM)
IC50 [8]: 0.096 µM
MIC [9]: 8 µg/mL (≈ 18.3 µM)
MIC [3, 23]: 2.6 µg/mL
IC50 at 3 days ([10]; resazurin): 1.3 µM
IC50 at 3 days ([10]; value in parentheses): 0.6 µg/mL
MIC [11]: 1 µg/mL (≈ 2.29 µM)
MIC ([12]; ATCC25922, read-out: MIC Ec WT): > 128 µg/mL
MIC [13]: 64 µg/mL (≈ 147 µM)
MIC ([14]; PAO1, read-out: MIC Pa WT): > 128 µg/mL
MIC Kp WT [15]: >128 µg/mL
IC50 [16]: 0.026 µM and 0.0229 µM
MIC [17]: 4 µg/mL (≈ 9.16 µM)

Nc1nc(Nc2ccc3nc(-c4ccc(F)cc4)cc(N)c3c2)cc(N2CCC(N)CC2)n1 [Compound 8j, N^6-(2-Amino-6-(4-aminopiperidin-1-yl)pyrimidin-4-yl)-2-(4-fluorophenyl)quinoline-4,6-diamine]
IC50 [6, 21]: 21 µM
IC50 [6, 22]: 21.4 µM
MIC [7]: 8 µg/mL (≈ 18 µM)
MIC [9]: 16 µg/mL (≈ 36 µM)
MIC [3, 23]: 44.5 µg/mL
IC50 at 3 days ([10]; resazurin): 22 µM
IC50 at 3 days ([10]; value in parentheses): 9.8 µg/mL
MIC [11]: 32 µg/mL (≈ 72 µM)
MIC ([18]; Pseudomonas aeruginosa, PAO1, read-out: MIC mutant): 32 µg/mL (≈ 72 µM)
fold increase of MIC ([18]; mutant CH5071 vs parent P. aeruginosa PAO1): 8
MIC mutant ([18]; mutant CH5072 raised against 8j, phoQ Leu158fs): 32 µg/mL (≈ 72 µM)
fold increase of MIC ([18]; mutant CH5072 vs parent P. aeruginosa PAO1): 8
MIC mutant ([18]; mutant CH5073 raised against 8j, basS (pmrB) Ser257Asn): 32 µg/mL (≈ 72 µM)
fold increase of MIC ([18]; mutant CH5073 vs parent P. aeruginosa PAO1): 8
MIC mutant ([18]; mutant CH5075 raised against 8j, basS (pmrB) Ala29Glu): 32 µg/mL (≈ 72 µM)
fold increase of MIC ([18]; mutant CH5075 vs parent P. aeruginosa PAO1): 8
MIC mutant ([18]; mutant CH5077 raised against 8j, phoQ Ser151 stop codon): 32 µg/mL (≈ 72 µM)
fold increase of MIC ([18]; mutant CH5077 vs parent P. aeruginosa PAO1): 8
MIC ([12]; ATCC25922, E. coli ATCC 25922, wild-type, read-out: MIC Ec WT): 64 µg/mL (≈ 144 µM)
MIC [13]: 128 µg/mL (≈ 288 µM)
MIC ([14]; PAO1, P. aeruginosa PAO1, wild-type, read-out: MIC Pa WT): 4 µg/mL (≈ 9 µM)
MIC Kp WT [15]: >128 µg/mL
IC50 [16]: 6.1 µM and 6.07 µM
MIC [17]: 8 µg/mL (≈ 18 µM)

COc1nc2ccc(Br)cc2cc1[C@@H](c1ccccc1)[C@@](O)(CCN(C)C)c1cccc2ccccc12 [bedaquiline, reference compound]
MIC [3, 20]: 0.37 µM
cytotoxicity HepG2 TD50 [4]: 50 µM
cytotoxicity HepG2 TD99 [4]: ≥ 100 µM

CC(C)(C)OC(=O)NCC1CCN(c2cc(Nc3ccc4nc(-c5ccc(F)cc5)cc(N)c4c3)nc(N)n2)CC1 [Compound 8g, tert-Butyl ((1-(2-Amino-6-((4-amino-2-(4-fluorophenyl)quinolin-6-yl)amino)pyrimidin-4-yl)piperidin-4-yl)methyl)carbamate]
IC50 [6, 21]: 0.58 µM
IC50 [6, 22]: 0.537 µM
MIC [7]: 128 µg/mL (≈ 229 µM)
MIC [9]: 4 µg/mL (≈ 7.16 µM)
MIC ([19]; MG1655, read-out: MIC mutant, mutant CH5053 raised against 8g, ackA Leu255Arg): 16 µg/mL (≈ 28.6 µM)
MIC ([19]; MG1655, read-out: MIC mutant, mutant CH5054 raised against 8g, ackA Glu375 stop codon): 16 µg/mL (≈ 28.6 µM)
MIC ([19]; MG1655, read-out: MIC mutant, mutant CH5055 raised against 8g, ackA Thr233Pro): 16 µg/mL (≈ 28.6 µM)
MIC ([19]; MG1655, read-out: MIC mutant, mutant CH5056 raised against 8g, ackA Gly275Asp): 16 µg/mL (≈ 28.6 µM)
MIC ([19]; MG1655, read-out: MIC mutant, mutant CH5057 raised against 8g, eno Pro38Leu): 8 µg/mL (≈ 14.3 µM)
MIC ([19]; MG1655, read-out: MIC mutant, mutant CH5058 raised against 8g, ackA Ile92fs): 16 µg/mL (≈ 28.6 µM)
MIC ([19]; MG1655, read-out: MIC mutant, mutant CH5059 raised against 8g, ackA Arg91Ser): 16 µg/mL (≈ 28.6 µM)
MIC ([19]; MG1655, read-out: MIC mutant, mutant CH5062 raised against 8g, ackA Gly241Asp): 16 µg/mL (≈ 28.6 µM)
MIC ([19]; MG1655, read-out: MIC mutant, mutant CH5063 raised against 8g, ackA Arg91Leu): 16 µg/mL (≈ 28.6 µM)
fold increase of MIC ([19]; mutant CH5053 vs parent E. coli MG1655 ΔtolC): 4
fold increase of MIC ([19]; mutant CH5054 vs parent E. coli MG1655 ΔtolC): 4
fold increase of MIC ([19]; mutant CH5055 vs parent E. coli MG1655 ΔtolC): 4
fold increase of MIC ([19]; mutant CH5056 vs parent E. coli MG1655 ΔtolC): 4
fold increase of MIC ([19]; mutant CH5057 vs parent E. coli MG1655 ΔtolC): 2
fold increase of MIC ([19]; mutant CH5058 vs parent E. coli MG1655 ΔtolC): 4
fold increase of MIC ([19]; mutant CH5059 vs parent E. coli MG1655 ΔtolC): 4
fold increase of MIC ([19]; mutant CH5062 vs parent E. coli MG1655 ΔtolC): 4
fold increase of MIC ([19]; mutant CH5063 vs parent E. coli MG1655 ΔtolC): 4
MIC [3, 23]: 6.8 µg/mL
IC50 at 3 days ([10]; resazurin): 1.4 µM
IC50 at 3 days ([10]; value in parentheses): 0.8 µg/mL
MIC [11]: 4 µg/mL (≈ 7.16 µM)
MIC ([12]; ATCC25922, read-out: MIC Ec WT): > 128 µg/mL
MIC [13]: 4 µg/mL (≈ 7.16 µM)
MIC ([14]; PAO1, read-out: MIC Pa WT): > 128 µg/mL
MIC Kp WT [15]: 128 µg/mL (≈ 229 µM)
IC50 [16]: 0.29 µM and 0.286 µM
MIC [17]: 4 µg/mL (≈ 7.16 µM)
